“Also recorded” adds a separate entry of the source. Ends that are not written are not given here.
Tests used:
[1] = system: ZP proteins on intact canine oocytes; test: Phage display selection of ZP-binding peptides on intact canine oocytes; details: four rounds of selection, 1000 intact canine oocytes per round, 7-mer and 12-mer phage display libraries
Experimental: The phage display procedure developed herein utilizes intact oocytes surrounded by ZP proteins. In this procedure, ZP proteins remain on oocytes in their native conformation, unlike previously published selection protocols that use denatured ZPs immobilized on an artificial solid support. The procedure involves incubating isolated oocytes with a phage display library followed by washing of unbound phage. Oocytes are lysed, and bound phage are amplified in bacterial cultures. Enrichment in ZP-binding phage clones is achieved in four subsequent selection rounds, after which selected phage DNAs are sequenced and translated to obtain peptide sequences.
Collection of dog ova: Oocytes were isolated from dog ovaries obtained from spay/neuter clinics. All ovaries were collected from bitches (six months of age and older) undergoing elective ovariohysterectomy. Approximately 20-30 oocytes from each pair of ovaries were isolated. Ova were washed extensively, retrieved by visual inspection at 12× magnification, washed two additional times, pooled and frozen before the use. Oocytes isolated from dog ovaries were characterized by microscopic evaluations.
Identification of peptides that bind to ZP proteins on intact canine oocytes: Peptides that specifically bind to ZP proteins were identified by utilizing two phage display libraries purchased from New England BioLabs, including: PhD-C7C Peptide 7-mer Library Kit and PhD-12 Peptide Library Kit. The utilized approach selects peptides that mimic the sperm antigen at the level of the ZP-sperm binding (FIG. 2).
Four rounds of selection were performed using each library. For each selection round, an aliquot of the primary library was diluted in a blocking buffer and incubated with 1000 intact canine oocytes surrounded by ZP. After incubation, phages expressing peptides not bound to oocytes were washed away and the bound phages were recovered by lysis. […] Peptide sequences from phage display selection on intact dog oocytes surrounded by ZP included: LNSFLRS (SEQ ID NO:1), LSTALRS (SEQ ID NO:2), SSWYRGA (SEQ ID NO:3), TGTSTRA (SEQ ID NO:4), YLPIYTIPSMVY (SEQ ID NO:5), NNQSPILKLSIH (SEQ ID NO:6), and AHPNTAPIHPKF (SEQ ID NO:7). Based on the peptide sequences, the following five antigens were prepared: antigen 1—YLPVGGLRRIGG (SEQ ID NO:14), antigen 2—CLNSFLRSC-KGG (SEQ ID NO:9), antigen 3—YLPIYTIPSMVY-GG (SEQ ID NO:12), antigen 4—NNQSPILKLSIH-GG (SEQ ID NO:13), and antigen 5—CSSWYRGAC-KGGY (SEQ ID NO:11).

dogs = test: Peptide ELISA of serum from immunized dogs for anti-peptide antibodies; assay type: in vivo, dog
Experimental: Immunization of dogs with ZP-binding peptides conjugated to a carrier protein: The peptides were synthesized by Global Peptide Services (Fort Collins, Colo.) at a yield of 10-20 mg having 95% purity. Two of the selected peptides were 7 amino acids long and the other two were 12 amino acids long. Antigen was taken from the literature (6) to serve as a control. To assure maximum immunogenicity, the peptides were conjugated to keyhole-limpet hemocyanin (KLH), a carrier protein. For vaccinations, the antigen was formulated to include: 250 μg of KLH conjugated peptide mixed with aluminum hydroxide adjuvant (Alhydrogel 85) and 100 μg canine specific immunostimulatory oligodeoxynucleotide (CpG). Four of the selected peptides and one control peptide were injected intramusculary into each dog (one dog/peptide). Booster immunizations were given twice to achieve high titer antisera. Each immunized dog served as his/her own control since none were expected to have preexisting antibodies to the selected peptides.
Evaluation of serum collected from immunized dogs for anti-ZP-binding peptide antibodies: Serum samples were collected from all dogs prior to immunization and biweekly or monthly thereafter during a 12-month period. The samples were tested for the presence of anti-peptide antibodies in a peptide ELISA format. […] The immunization scheme was as described above.

canine sperm cells = test: Sperm cell ELISA of serum from dogs immunized with antigen 4; assay type: in vivo; details: three dogs immunized with antigen 4; sperm cell ELISA at serum dilution 1:50 (FIG. 5)

Substance | binding to ZP (peptide sequences of phage selected on intact dog oocytes) [1] | further results
AHPNTAPIHPKF (Phage library random peptide insert) [SEQ ID NO:7] | responsible for binding to ZP | –
LSTALRS (Phage library random peptide insert) [SEQ ID NO:2] | responsible for binding to ZP | –
YLPIYTIPSMVY (Phage library random peptide insert) [SEQ ID NO:5] | responsible for binding to ZP | –
NNQSPILKLSIH-GG (NNQSPILKLSIHGG; also: conjugated to carrier protein) [antigen 4] | – | immunogenicity: anti-peptide antibody levels in serum (dogs; one dog per antigen, 250 μg KLH conjugated peptide with aluminum hydroxide adjuvant and CpG, intramuscular, two boosts, peptide ELISA at serum dilution 1:6400 (FIG. 3)): specific anti-peptide antibodies at high levels; also recorded: high immunogenic properties; titers of anti-peptide antibodies (dogs; three additional dogs, same immunization scheme, peptide ELISA at serum dilution 1:6400 (FIG. 4)): high titers of anti-peptide antibodies; binding of raised antibodies to canine sperm cells (anti-sperm antibody levels) (canine sperm cells): bind to canine sperm cells
LNSFLRS (Phage library random peptide insert) [SEQ ID NO:1] | responsible for binding to ZP | –
SSWYRGA (Phage library random peptide insert) [SEQ ID NO:3] | responsible for binding to ZP | –
TGTSTRA (Phage library random peptide insert) [SEQ ID NO:4] | responsible for binding to ZP | –
NNQSPILKLSIH (Phage library random peptide insert) [SEQ ID NO:6] | responsible for binding to ZP | –

Reference: patent US8057992B2, “Methods for identifying peptides that bind to intact oocytes” (Auburn University, priority 2007, dated 2011)
